Laboratory results reported in patent US20250154144A1 (CHILDREN'S HOSPITAL MEDICAL CENTER, priority 2021, published 2025).
Like-named read-outs stand apart in the source and are kept apart here.

What was measured:
[1] = target: T1, IRAK4 (Homo sapiens, UniProt Q9NWZ3); assay: RBC HotSpot Kinase Assay, IRAK4
T1 sequence (Q9NWZ3 1-460): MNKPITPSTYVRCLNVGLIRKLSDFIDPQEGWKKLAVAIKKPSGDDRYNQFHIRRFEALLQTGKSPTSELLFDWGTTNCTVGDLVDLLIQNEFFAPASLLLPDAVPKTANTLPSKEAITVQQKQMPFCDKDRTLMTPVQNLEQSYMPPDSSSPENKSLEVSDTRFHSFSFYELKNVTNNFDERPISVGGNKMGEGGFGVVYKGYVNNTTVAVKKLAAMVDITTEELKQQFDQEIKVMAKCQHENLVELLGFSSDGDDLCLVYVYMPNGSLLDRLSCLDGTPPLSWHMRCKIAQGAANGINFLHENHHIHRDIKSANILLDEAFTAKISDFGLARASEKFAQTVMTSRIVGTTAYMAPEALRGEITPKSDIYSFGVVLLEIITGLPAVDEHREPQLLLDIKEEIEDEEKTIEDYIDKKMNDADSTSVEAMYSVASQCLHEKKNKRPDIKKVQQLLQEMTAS

[2] = target: T2, FLT3 (Homo sapiens, UniProt P36888); assay: RBC HotSpot Kinase Assay, FLT3
T2 sequence (P36888 610-943 limits assumed): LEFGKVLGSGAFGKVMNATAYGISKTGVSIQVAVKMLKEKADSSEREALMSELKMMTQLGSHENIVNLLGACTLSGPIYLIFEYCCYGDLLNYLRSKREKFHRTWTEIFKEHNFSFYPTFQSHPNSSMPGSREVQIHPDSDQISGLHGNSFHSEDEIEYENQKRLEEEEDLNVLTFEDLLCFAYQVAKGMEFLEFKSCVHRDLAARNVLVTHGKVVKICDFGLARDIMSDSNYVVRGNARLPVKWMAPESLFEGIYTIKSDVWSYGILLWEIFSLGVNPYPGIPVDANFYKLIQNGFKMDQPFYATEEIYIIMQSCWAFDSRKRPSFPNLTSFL

[3] = target: IRAK1 (Homo sapiens, UniProt P51617); assay: RBC HotSpot Kinase Assay, IRAK1
IRAK1, sequence (P51617 whole entry): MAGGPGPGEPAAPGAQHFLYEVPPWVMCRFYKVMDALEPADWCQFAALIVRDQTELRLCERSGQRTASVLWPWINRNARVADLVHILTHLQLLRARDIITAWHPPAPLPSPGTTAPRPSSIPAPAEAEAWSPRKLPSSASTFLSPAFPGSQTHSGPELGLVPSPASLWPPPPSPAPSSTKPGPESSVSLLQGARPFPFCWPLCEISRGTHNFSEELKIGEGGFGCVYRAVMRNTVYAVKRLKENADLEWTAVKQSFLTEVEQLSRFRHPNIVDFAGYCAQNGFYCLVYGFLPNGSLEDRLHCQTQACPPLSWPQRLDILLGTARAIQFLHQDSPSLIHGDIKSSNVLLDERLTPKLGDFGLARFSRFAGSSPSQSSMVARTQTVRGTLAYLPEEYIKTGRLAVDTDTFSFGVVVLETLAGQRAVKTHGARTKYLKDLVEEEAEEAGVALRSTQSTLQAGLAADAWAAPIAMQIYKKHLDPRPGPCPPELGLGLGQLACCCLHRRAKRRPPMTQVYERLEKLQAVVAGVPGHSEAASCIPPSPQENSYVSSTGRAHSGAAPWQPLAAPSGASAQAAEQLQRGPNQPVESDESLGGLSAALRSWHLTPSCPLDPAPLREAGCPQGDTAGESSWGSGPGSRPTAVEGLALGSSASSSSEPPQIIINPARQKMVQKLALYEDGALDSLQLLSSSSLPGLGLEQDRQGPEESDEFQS

IC50 ([1]; IRAK4 IC50) [nM] | IC50 ([2]; FLT3 IC50) [nM] | IC50 ([3]; IRAK1 IC50) [nM] | IC50 ([1]; read-out: IRAK4 IC50) [nM] | IC50 ([2]; read-out: FLT3 IC50) [nM] | IC50 ([3]; read-out: IRAK1 IC50) [nM] | Structure (SMILES)
 |  |  | < 0.5 | < 0.5 | < 0.5 | COc1cc2ncc(-c3ccnc(N[C@H]4CNC[C@@H]4F)n3)n2cc1C(C)(O)C(F)(F)F (single isomer, unassigned) [Compound 56]
< 0.5 | < 0.5 | < 0.5 |  |  |  | COc1cc2ncc(-c3ccnc(N[C@@H]4CCCNC4)n3)n2cc1C(C)(O)C(F)(F)F (single isomer, unassigned) [Compound 57]
< 0.5 | < 0.5 | 0.6 |  |  |  | CC(O)(c1cn2c(-c3ccnc(N[C@H]4CNCC[C@@H]4F)n3)cnc2cn1)C(F)(F)F (single isomer, unassigned) [Compound 58]
< 0.5 | < 0.5 | < 0.5 |  |  |  | COc1cc2ncc(-c3cncc(N[C@H]4CNC[C@@H]4F)n3)n2cc1C(C)(O)C(F)(F)F (single isomer, unassigned) [Compound 61]
 |  | 2 | < 0.5 | < 0.5 |  | COc1cc2ncc(-c3cncc(N[C@H]4CNC[C@@H]4F)n3)n2cc1C(C)(O)C(F)(F)F (single isomer, unassigned) [Compound 62]
0.7 | < 0.5 | 2 |  |  |  | COc1cc2ncc(-c3cncc(N[C@@H]4CCCNC4)n3)n2cc1C(C)(O)C(F)(F)F (single isomer, unassigned) [Compound 63]
2040 | 67 | 5440 |  |  |  | COc1cc2ncc(-c3cncc(N[C@@H]4CCCNC4)n3)n2nc1C(C)(O)C(F)(F)F (single isomer, unassigned) [Compound 82]
512 | 2 | 3020 |  |  |  | COc1cc2ncc(-c3cncc(N[C@@H]4CCCNC4)n3)n2nc1C(C)(O)C(F)(F)F (single isomer, unassigned) [Compound 84]
13 | 5 | 237 |  |  |  | CC(C)(O)c1ccc2ncc(-c3cncc(N[C@H]4CNC[C@@H]4F)n3)n2c1 [Compound 16, 2-(3-(6-(((3S,4S)-4-fluoropyrrolidin-3-yl)amino)pyrazin-2-yl)imidazo[1,2-a]pyridin-6-yl)propan-2-ol]

The remaining lines, values behind:

Structure (SMILES) | IC50 ([1]; IRAK4 IC50) [nM] | IC50 ([2]; FLT3 IC50) [nM] | IC50 ([3]; IRAK1 IC50) [nM] | IC50 ([1]; read-out: IRAK4 IC50) [nM] | IC50 ([2]; read-out: FLT3 IC50) [nM] | IC50 ([3]; read-out: IRAK1 IC50) [nM]
COc1cc2ncc(-c3ccnc(N[C@H]4CNC[C@@H]4F)n3)n2cc1C(C)(O)C(F)(F)F (single isomer, unassigned) [Compound 55] | < 0.5 | < 0.5 | < 0.5 |  |  | 
COc1cc2ncc(-c3cncc(N[C@@H]4CCCNC4)n3)n2cc1C(C)(O)C(F)(F)F (single isomer, unassigned) [Compound 64] | < 0.5 |  | 1 |  | < 0.5 | 
COc1cc2ncc(-c3cncc(N[C@H]4CNCC[C@@H]4F)n3)n2cc1C(C)(O)C(F)(F)F (single isomer, unassigned) [Compound 65] | < 0.5 | < 0.5 | < 0.5 |  |  | 
COc1cc2ncc(-c3cncc(N[C@H]4CNCC[C@@H]4F)n3)n2cc1C(C)(O)C(F)(F)F (single isomer, unassigned) [Compound 66] |  |  |  | < 0.5 | < 0.5 | < 0.5
COc1cc2ncc(-c3cncc(N[C@H]4CNCC[C@@H]4F)n3)n2nc1C(C)(O)C(F)(F)F (single isomer, unassigned) [Compound 79] | 367 | 6 | 1020 |  |  | 
COc1cc2ncc(-c3cncc(N[C@H]4CNCC[C@@H]4F)n3)n2nc1C(C)(O)C(F)(F)F (single isomer, unassigned) [Compound 80] | 406 | < 0.5 | 1120 |  |  | 
COc1cc2ncc(-c3cncc(N[C@H]4CNC[C@@H]4F)n3)n2nc1C(C)(O)C(F)(F)F (single isomer, unassigned) [Compound 81] | 2540 | 8 | 7900 |  |  | 
COc1cc2ncc(-c3cncc(N[C@H]4CNC[C@@H]4F)n3)n2nc1C(C)(O)C(F)(F)F (single isomer, unassigned) [Compound 83] | 544 | 1 | 4690 |  |  | 
